Key:
Type in all cases: in vivo
rice (Oryza saliva) [1] = assay: Test C flooded paddy test
In short: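 2-leaf-stage plants, flooded paddy; treated; greenhouse 12–14 days; compared with controls by eye; rated 0–100 (0 none, 100 complete control).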

[2] = system: barnyardgrass (Echinochloa crus-galli); assay: Test B preemergence
In short: (§1)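 Greenhouse test: chemicals are formulated in a surfactant-containing non-phytotoxic solvent and applied either preemergence to planted seeds or postemergence to plants 2 to 18 cm tall. Response is rated visually versus controls after 13 to 15 days, 0 meaning no effect and 100 complete control.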

[3] = system: cocklebur (Xanthium strumarium); assay: Test B preemergence
In short: as §1

corn (Zea mays) [4] = assay: Test B preemergence
In short: as §1

[5] = system: morning glory (Ipomoea hederacea); assay: Test B preemergence
In short: as §1

[6] = system: crabgrass (Digitaria sanguinalis); assay: Test B preemergence
In short: as §1

[7] = system: Surinam grass (Brachiaria decumbens); assay: Test B preemergence
In short: as §1

[8] = system: lambsquarters (Chenopodium album); assay: Test B preemergence
In short: as §1

[9] = system: giant foxtail (Setaria faberii); assay: Test B preemergence
In short: as §1

[10] = system: pigweed (Amaranthus retroflexus); assay: Test B preemergence
In short: as §1

[11] = system: velvetleaf (Abutilon theophrasti); assay: Test B preemergence
In short: as §1

wild oat (Avena fatua) = assay: Test B postemergence
In short: as §1

[12] = system: barnyardgrass (Echinochloa crus-galli); assay: Test B postemergence
In short: as §1

[13] = system: cocklebur (Xanthium strumarium); assay: Test B postemergence
In short: as §1

[14] = system: blackgrass (Alopecurus myosuroides); assay: Test B postemergence
In short: as §1

corn (Zea mays) [15] = assay: Test B postemergence
In short: as §1

[16] = system: morning glory (Ipomoea hederacea); assay: Test B postemergence
In short: as §1

[17] = system: crabgrass (Digitaria sanguinalis); assay: Test B postemergence
In short: as §1

[18] = system: wheat (Triticum aestivum); assay: Test B postemergence
In short: as §1

[19] = system: Surinam grass (Brachiaria decumbens); assay: Test B postemergence
In short: as §1

[20] = system: lambsquarters (Chenopodium album); assay: Test B postemergence
In short: as §1

[21] = system: giant foxtail (Setaria faberii); assay: Test B postemergence
In short: as §1

[22] = system: pigweed (Amaranthus retroflexus); assay: Test B postemergence
In short: as §1

[23] = system: velvetleaf (Abutilon theophrasti); assay: Test B postemergence
In short: as §1

rice (Oryza saliva) [24] = assay: Test B preemergence
In short: as §1

[25] = Preemergence, Rate 500 g/ha, scale 0 to 100, 0 no effect, 100 complete control
[26] = preemergence, Rate 125 g/ha, scale 0 to 100, 0 no effect, 100 complete control
[27] = Rate 125 g/ha, scale 0 (no effect) to 100 (complete control), 13 to 15 days
[28] = Rate 500 g/ha, scale 0 to 100, 0 is no effect, 100 is complete control, 13 to 15 days
[29] = preemergence, Rate 62 g/ha, scale of 0 to 100 where 0 is no effect and 100 is complete control, 13 to 15 days
[30] = preemergence, Rate 250 g/ha, scale 0 to 100, 0 no effect, 100 complete control
[31] = Rate 62 g/ha, scale 0 to 100, 0 no effect, 100 complete control
[32] = Rate 250 g/ha, scale 0 (no effect) to 100 (complete control), 13 to 15 days

## CC(C)(C)c1ccn(C2CCN(c3cccc(C(F)(F)F)c3)C2=O)n1 (stereo not drawn) [Example 3, 3-[3-(1,1-dimethylethyl)-1H-pyrazol-1-yl]-1-[3-(trifluoromethyl)phenyl]-2-pyrrolidinone]
Rice (Oryza saliva) [1]; Flooded Paddy, Rate 500 g/ha, scale 0 to 100
  Plant response rating, Rice: 60
Rice (Oryza saliva) [1]; Flooded Paddy, Rate 1000 g/ha, scale 0 to 100
  Plant response rating, Rice: 90
Rice (Oryza saliva) [1]; Flooded Paddy, Rate 250 g/ha, scale 0 to 100, 0 no effect, 100 complete control
  Rice plant response rating: 50
Rice (Oryza saliva) [1]; flooded paddy test, Rate 62 g/ha, scale 0 to 100 (0 no effect, 100 complete control)
  Plant response rating, Rice: 0
Rice (Oryza saliva) [1]; flooded paddy test, Rate 125 g/ha, scale 0 to 100 (0 no effect, 100 complete control)
  Plant response rating, Rice: 0
[2]; [25]
  Plant response rating, Barnyardgrass: 100
[2]; [26]
  Plant response rating, Barnyardgrass: 80
[3]; [25]
  Plant response rating, Cocklebur: 0
[3]; [26]
  Plant response rating, Cocklebur: 0
Corn (Zea mays) [4]; [25]
  Plant response rating, Corn: 30
Corn (Zea mays) [4]; [26]
  Plant response rating, Corn: 0
[5]; [25]
  Plant response rating, Morningglory: 0
[5]; [26]
  Plant response rating, Morningglory: 0
[6]; [25]
  Plant response rating, Crabgrass: 100
[6]; [26]
  Plant response rating, Crabgrass: 70
[7]; [25]
  Plant response rating, Surinam grass: 70
[7]; [26]
  Plant response rating, Surinam grass: 40
[8]; [25]
  Plant response rating, Lambsquarters: 100
[8]; [26]
  Plant response rating, Lambsquarters: 100
[9]; [25]
  Plant response rating, Foxtail, Giant: 80
[9]; [26]
  Plant response rating, Foxtail, Giant: 40
[10]; [25]
  Plant response rating, Pigweed: 100
[10]; [26]
  Plant response rating, Pigweed: 100
[11]; [25]
  Plant response rating, Velvetleaf: 0
[11]; [26]
  Plant response rating, Velvetleaf: 0
Wild oat (Avena fatua); [27]
  Plant response rating, Wild Oat: 0
Wild oat (Avena fatua); [28]
  Plant response rating, Wild Oat: 0
[12]; [27]
  Plant response rating, Barnyardgrass: 0
[12]; [28]
  Plant response rating, Barnyardgrass: 70
[13]; [27]
  Plant response rating, Cocklebur: 0
[13]; [28]
  Plant response rating, Cocklebur: 30
[14]; [27]
  Plant response rating, Blackgrass: 0
[14]; [28]
  Plant response rating, Blackgrass: 0
Corn (Zea mays) [15]; [27]
  Plant response rating, Corn: 0
Corn (Zea mays) [15]; [28]
  Plant response rating, Corn: 0
[16]; [27]
  Plant response rating, Morningglory: 0
[16]; [28]
  Plant response rating, Morningglory: 30
[17]; [27]
  Plant response rating, Crabgrass: 0
[17]; [28]
  Plant response rating, Crabgrass: 40
[18]; [27]
  Plant response rating, Wheat: 0
[18]; [28]
  Plant response rating, Wheat: 0
[19]; [27]
  Plant response rating, Surinam grass: 0
[19]; [28]
  Plant response rating, Surinam grass: 20
[20]; [27]
  Plant response rating, Lambsquarters: 80
[20]; [28]
  Plant response rating, Lambsquarters: 100
[21]; [27]
  Plant response rating, Foxtail, Giant: 0
[21]; [28]
  Plant response rating, Foxtail, Giant: 30
[22]; [27]
  Plant response rating, Pigweed: 70
[22]; [28]
  Plant response rating, Pigweed: 90
[23]; [27]
  Plant response rating, Velvetleaf: 0
[23]; [28]
  Plant response rating, Velvetleaf: 0

## CC(C)(C)c1ccn(C2OCN(c3cccc(C(F)(F)F)c3)C2=O)n1 (stereo not drawn) [compound 9]
[2]; [29]
  Plant response rating, Barnyardgrass: 0
[2]; [30]
  Plant response rating, Barnyardgrass: 60
[3]; [29]
  Plant response rating, Cocklebur: 0
[3]; [30]
  Plant response rating, Cocklebur: 0
Corn (Zea mays) [4]; [29]
  Plant response rating, Corn: 0
Corn (Zea mays) [4]; [30]
  Plant response rating, Corn: 0
[5]; [29]
  Plant response rating, Morningglory: 0
[5]; [30]
  Plant response rating, Morningglory: 0
Rice (Oryza saliva) [24]; [29]
  Plant response rating, Rice: 0
Rice (Oryza saliva) [24]; [30]
  Plant response rating, Rice: 0
[6]; [29]
  Plant response rating, Crabgrass: 0
[6]; [30]
  Plant response rating, Crabgrass: 100
[7]; [29]
  Plant response rating, Surinam grass: 0
[7]; [30]
  Plant response rating, Surinam grass: 70
[8]; [29]
  Plant response rating, Lambsquarters: 90
[8]; [30]
  Plant response rating, Lambsquarters: 100
[9]; [29]
  Plant response rating, Foxtail, Giant: 30
[9]; [30]
  Plant response rating, Foxtail, Giant: 90
[10]; [29]
  Plant response rating, Pigweed: 80
[10]; [30]
  Plant response rating, Pigweed: 100
[11]; [29]
  Plant response rating, Velvetleaf: 0
[11]; [30]
  Plant response rating, Velvetleaf: 0
Wild oat (Avena fatua); [31]
  Plant response rating, Wild Oat: 0
Wild oat (Avena fatua); [32]
  Plant response rating, Wild Oat: 0
[12]; [31]
  Plant response rating, Barnyardgrass: 0
[12]; [32]
  Plant response rating, Barnyardgrass: 60
[13]; [31]
  Plant response rating, Cocklebur: 10
[13]; [32]
  Plant response rating, Cocklebur: 20
[14]; [31]
  Plant response rating, Blackgrass: 0
[14]; [32]
  Plant response rating, Blackgrass: 0
Corn (Zea mays) [15]; [31]
  Plant response rating, Corn: 0
Corn (Zea mays) [15]; [32]
  Plant response rating, Corn: 0
[16]; [31]
  Plant response rating, Morningglory: 0
[16]; [32]
  Plant response rating, Morningglory: 10
[17]; [31]
  Plant response rating, Crabgrass: 0
[17]; [32]
  Plant response rating, Crabgrass: 0
[18]; [31]
  Plant response rating, Wheat: 0
[18]; [32]
  Plant response rating, Wheat: 0
[19]; [31]
  Plant response rating, Surinam grass: 0
[19]; [32]
  Plant response rating, Surinam grass: 0
[20]; [31]
  Plant response rating, Lambsquarters: 70
[20]; [32]
  Plant response rating, Lambsquarters: 80
[21]; [31]
  Plant response rating, Foxtail, Giant: 0
[21]; [32]
  Plant response rating, Foxtail, Giant: 0
[22]; [31]
  Plant response rating, Pigweed: 70
[22]; [32]
  Plant response rating, Pigweed: 80
[23]; [31]
  Plant response rating, Velvetleaf: 0
[23]; [32]
  Plant response rating, Velvetleaf: 0

## O=C1C(n2cc(Cl)c(C3CC3)n2)CCN1c1cccc(C(F)(F)F)c1 (stereo not drawn) [Compound 12]
[2]; [25]
  Plant response rating, Barnyardgrass: 0
[2]; [26]
  Plant response rating, Barnyardgrass: 0
[3]; [25]
  Plant response rating, Cocklebur: 0
[3]; [26]
  Plant response rating, Cocklebur: 0
Corn (Zea mays) [4]; [25]
  Plant response rating, Corn: 0
Corn (Zea mays) [4]; [26]
  Plant response rating, Corn: 0
[5]; [25]
  Plant response rating, Morningglory: 0
[5]; [26]
  Plant response rating, Morningglory: 0
Rice (Oryza saliva) [24]; [25]
  Plant response rating, Rice: 0
Rice (Oryza saliva) [24]; [26]
  Plant response rating, Rice: 0
[6]; [25]
  Plant response rating, Crabgrass: 0
[6]; [26]
  Plant response rating, Crabgrass: 0
[7]; [25]
  Plant response rating, Surinam grass: 0
[7]; [26]
  Plant response rating, Surinam grass: 0
[8]; [25]
  Plant response rating, Lambsquarters: 0
[8]; [26]
  Plant response rating, Lambsquarters: 0
[9]; [25]
  Plant response rating, Foxtail, Giant: 0
[9]; [26]
  Plant response rating, Foxtail, Giant: 0
[10]; [25]
  Plant response rating, Pigweed: 0
[10]; [26]
  Plant response rating, Pigweed: 0
[11]; [25]
  Plant response rating, Velvetleaf: 0
[11]; [26]
  Plant response rating, Velvetleaf: 0
Wild oat (Avena fatua); [27]
  Plant response rating, Wild Oat: 0
Wild oat (Avena fatua); [28]
  Plant response rating, Wild Oat: 0
[12]; [27]
  Plant response rating, Barnyardgrass: 0
[12]; [28]
  Plant response rating, Barnyardgrass: 0
[13]; [27]
  Plant response rating, Cocklebur: 0
[13]; [28]
  Plant response rating, Cocklebur: 0
[14]; [27]
  Plant response rating, Blackgrass: 0
[14]; [28]
  Plant response rating, Blackgrass: 0
Corn (Zea mays) [15]; [27]
  Plant response rating, Corn: 0
Corn (Zea mays) [15]; [28]
  Plant response rating, Corn: 0
[16]; [27]
  Plant response rating, Morningglory: 0
[16]; [28]
  Plant response rating, Morningglory: 0
[17]; [27]
  Plant response rating, Crabgrass: 0
[17]; [28]
  Plant response rating, Crabgrass: 0
[18]; [27]
  Plant response rating, Wheat: 0
[18]; [28]
  Plant response rating, Wheat: 0
[19]; [27]
  Plant response rating, Surinam grass: 0
[19]; [28]
  Plant response rating, Surinam grass: 0
[20]; [27]
  Plant response rating, Lambsquarters: 0
[20]; [28]
  Plant response rating, Lambsquarters: 0
[21]; [27]
  Plant response rating, Foxtail, Giant: 0
[21]; [28]
  Plant response rating, Foxtail, Giant: 0
[22]; [27]
  Plant response rating, Pigweed: 0
[22]; [28]
  Plant response rating, Pigweed: 0
[23]; [27]
  Plant response rating, Velvetleaf: 0
[23]; [28]
  Plant response rating, Velvetleaf: 0
